Source: ChEMBL document CHEMBL1201862, “PubChem BioAssay data set” (2004)
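Step 1: Grow cells in 96-well plates. Step 2: Expose to compound for 48 hours at 5 concentrations. Step 3: Interpolate endpoints linearly; if unreached, use highest concentration. The concentration for 50% growth inhibition is given as GI50.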 Activity calls are given as the source filed them. Rule as the data show it: active = GI50 up to about 1.1 µM and inactive = higher.

Key:
Assay in all cases: DTP human tumour cell line panel, 48 h
A549 = tested on: A549
HL-60 = tested on: HL-60
K562 = tested on: K562
KM-20L2 = tested on: KM-20L2
LOX IMVI = tested on: LOX IMVI
Malme-3M = tested on: Malme-3M
NCI-H226 = tested on: NCI-H226
NCI-H522 = tested on: NCI-H522
OVCAR-3 = tested on: OVCAR-3
OVCAR-5 = tested on: OVCAR-5
OVCAR-8 = tested on: OVCAR-8
SF-295 = tested on: SF-295
SK-MEL-28 = tested on: SK-MEL-28
SK-MEL-2 = tested on: SK-MEL-2
SK-MEL-5 = tested on: SK-MEL-5
SW-620 = tested on: SW-620
UO-31 = tested on: UO-31
DU-145 = tested on: DU-145

## COc1ccc(N2C(=O)C3c4[nH]c5ccccc5c4C4CCCCC4C3C2=O)cc1 (stereo not drawn)
A549
  GI50: 18.3 µM (inactive)
HL-60
  GI50: 16.2 µM (inactive)
K562
  GI50: 18.2 µM (inactive)
KM-20L2
  GI50: 39.4 µM (inactive)
LOX IMVI
  GI50: 20 µM (inactive)
Malme-3M
  GI50: 5.56 µM (inactive)
NCI-H226
  GI50: 27.4 µM (inactive)
NCI-H522
  GI50: 18 µM (inactive)
OVCAR-3
  GI50: > 100 µM (inactive)
OVCAR-5
  GI50: > 100 µM (inactive)
OVCAR-8
  GI50: 11 µM (inactive)
SF-295
  GI50: 11.3 µM (inactive)
SK-MEL-28
  GI50: 10.6 µM (inactive)
SK-MEL-2
  GI50: 16.6 µM (inactive)
SK-MEL-5
  GI50: 21.7 µM (inactive)
SW-620
  GI50: 29.1 µM (inactive)
UO-31
  GI50: 26.4 µM (inactive)

## C=C1C(=O)OC2CC(C)C3C=CC(=O)C3CC12 (stereo not drawn)
A549
  GI50: 7.93 µM (inactive)
DU-145
  GI50: 5.41 µM (inactive)
HL-60
  GI50: 0.891 µM (active)
K562
  GI50: 1.46 µM (inactive)
KM-20L2
  GI50: 3.52 µM (inactive)
LOX IMVI
  GI50: 0.867 µM (active)
Malme-3M
  GI50: 2.05 µM (inactive)
NCI-H226
  GI50: 2.64 µM (inactive)
NCI-H522
  GI50: 0.61 µM (active)
OVCAR-3
  GI50: 5.13 µM (inactive)
OVCAR-5
  GI50: 3.29 µM (inactive)
OVCAR-8
  GI50: 2.94 µM (inactive)
SF-295
  GI50: 14.6 µM (inactive)
SK-MEL-28
  GI50: 1.68 µM (inactive)
SK-MEL-2
  GI50: 2.04 µM (inactive)
SK-MEL-5
  GI50: 2.14 µM (inactive)
SW-620
  GI50: 0.998 µM (active)
UO-31
  GI50: 2.9 µM (inactive)

## C=CCOCCCC(=O)C(=[N+]=[N-])C(=O)OC
A549
  GI50: > 100 µM (inactive)
DU-145
  GI50: > 100 µM (inactive)
HL-60
  GI50: > 100 µM (inactive)
K562
  GI50: > 100 µM (inactive)
KM-20L2
  GI50: > 100 µM (inactive)
LOX IMVI
  GI50: > 100 µM (inactive)
Malme-3M
  GI50: > 100 µM (inactive)
NCI-H226
  GI50: > 100 µM (inactive)
NCI-H522
  GI50: > 100 µM (inactive)
OVCAR-3
  GI50: > 100 µM (inactive)
OVCAR-5
  GI50: > 100 µM (inactive)
OVCAR-8
  GI50: > 100 µM (inactive)
SF-295
  GI50: > 100 µM (inactive)
SK-MEL-28
  GI50: > 100 µM (inactive)
SK-MEL-2
  GI50: > 100 µM (inactive)
SK-MEL-5
  GI50: > 100 µM (inactive)
SW-620
  GI50: > 100 µM (inactive)
UO-31
  GI50: > 100 µM (inactive)

## COc1ccc2nc(C(=O)c3ccccc3)c(C)cc2c1
A549
  GI50: 6.28 µM (inactive)
HL-60
  GI50: 3.38 µM (inactive)
K562
  GI50: 0.859 µM (active)
KM-20L2
  GI50: 3.18 µM (inactive)
LOX IMVI
  GI50: 5.43 µM (inactive)
Malme-3M
  GI50: 2.94 µM (inactive)
NCI-H226
  GI50: 23.9 µM (inactive)
NCI-H522
  GI50: 1.88 µM (inactive)
OVCAR-3
  GI50: 10.3 µM (inactive)
OVCAR-5
  GI50: 33.9 µM (inactive)
OVCAR-8
  GI50: 5.31 µM (inactive)
SF-295
  GI50: 2.81 µM (inactive)
SK-MEL-28
  GI50: 3.91 µM (inactive)
SK-MEL-2
  GI50: 6.27 µM (inactive)
SK-MEL-5
  GI50: 3.15 µM (inactive)
SW-620
  GI50: 2.81 µM (inactive)
UO-31
  GI50: 12.9 µM (inactive)

## CN(C)c1ccc(/C=C2\N=C(c3ccc(N)cc3)OC2=O)cc1
A549
  GI50: > 100 µM (inactive)
HL-60
  GI50: > 100 µM (inactive)
K562
  GI50: 38.8 µM (inactive)
KM-20L2
  GI50: > 100 µM (inactive)
LOX IMVI
  GI50: > 100 µM (inactive)
Malme-3M
  GI50: > 100 µM (inactive)
NCI-H226
  GI50: > 100 µM (inactive)
NCI-H522
  GI50: > 100 µM (inactive)
OVCAR-3
  GI50: > 100 µM (inactive)
OVCAR-5
  GI50: > 100 µM (inactive)
OVCAR-8
  GI50: > 100 µM (inactive)
SF-295
  GI50: > 100 µM (inactive)
SK-MEL-28
  GI50: > 100 µM (inactive)
SK-MEL-2
  GI50: > 100 µM (inactive)
SK-MEL-5
  GI50: > 100 µM (inactive)
SW-620
  GI50: > 100 µM (inactive)
UO-31
  GI50: > 100 µM (inactive)

## CC1CC2(S(=O)(=O)c3ccccc3)ON1CC2S(=O)(=O)c1ccccc1 (stereo not drawn)
A549
  GI50: > 100 µM (inactive)
HL-60
  GI50: > 100 µM (inactive)
K562
  GI50: > 100 µM (inactive)
KM-20L2
  GI50: > 100 µM (inactive)
LOX IMVI
  GI50: > 100 µM (inactive)
Malme-3M
  GI50: > 100 µM (inactive)
NCI-H226
  GI50: > 100 µM (inactive)
NCI-H522
  GI50: 70.8 µM (inactive)
OVCAR-3
  GI50: > 100 µM (inactive)
OVCAR-5
  GI50: > 100 µM (inactive)
OVCAR-8
  GI50: > 100 µM (inactive)
SF-295
  GI50: > 100 µM (inactive)
SK-MEL-28
  GI50: > 100 µM (inactive)
SK-MEL-2
  GI50: > 100 µM (inactive)
SW-620
  GI50: > 100 µM (inactive)
UO-31
  GI50: > 100 µM (inactive)
